According to the NIST ThermoML archive (doi:10.1021/je300134c):

Test: xn = mol fraction of the nth substance listed
Details: 101 kPa, Liquid; for speed of sound: Sing-around technique in a fixed-path interferometer; for mass density: Vibrating tube method

CCCCn1cc[n+](C)c1.O=S(=O)([O-])C(F)(F)F [1-butyl-3-methylimidazolium trifluoromethanesulfonate] + O
Details	mass density [kg/m3]	speed of sound [m/s]
288.15 K, x1 = 0.05002	1122.78	1539.5
288.15 K, x1 = 0.09974	1178.77	1524.8
288.15 K, x1 = 0.1499	1211.09	1510.4
288.15 K, x1 = 0.3013	1257.47	1474.6
288.15 K, x1 = 0.3994	1272.13	1459
288.15 K, x1 = 0.4973	1281.71	1447.6
288.15 K, x1 = 0.5999	1289.22	1438
288.15 K, x1 = 0.6988	1294.59	1431.6
288.15 K, x1 = 0.8953	1302.01	1420.5
288.15 K, x1 = 1	1304.56	1416
298.15 K, x1 = 0.05002	1116.95	1538.2
298.15 K, x1 = 0.09974	1171.65	1514.3
298.15 K, x1 = 0.1499	1203.38	1494.8
298.15 K, x1 = 0.3013	1249.32	1453.8
298.15 K, x1 = 0.3994	1263.98	1437.3
298.15 K, x1 = 0.4973	1273.59	1425.5
298.15 K, x1 = 0.5999	1281.16	1415.7
298.15 K, x1 = 0.6988	1286.57	1408.8
298.15 K, x1 = 0.8953	1294.08	1397.7
298.15 K, x1 = 1	1296.67	1393
308.15 K, x1 = 0.05002	1110.67	1533.5
308.15 K, x1 = 0.09974	1164.25	1501.6
308.15 K, x1 = 0.1499	1195.48	1477.9
308.15 K, x1 = 0.3013	1241.1	1432.7
308.15 K, x1 = 0.3994	1255.79	1415.6
308.15 K, x1 = 0.4973	1265.46	1403.5
308.15 K, x1 = 0.5999	1273.1	1393.6
308.15 K, x1 = 0.6988	1278.56	1386.5
308.15 K, x1 = 0.8953	1286.15	1375.5
308.15 K, x1 = 1	1288.78	1370.7
318.15 K, x1 = 0.05002	1103.96	1525.8
318.15 K, x1 = 0.09974	1156.58	1486.9
318.15 K, x1 = 0.1499	1187.4	1459.8
318.15 K, x1 = 0.3013	1232.82	1411.4
318.15 K, x1 = 0.3994	1247.58	1393.8
318.15 K, x1 = 0.4973	1257.33	1381.7
318.15 K, x1 = 0.5999	1265.05	1371.7
318.15 K, x1 = 0.6988	1270.58	1364.7
318.15 K, x1 = 0.8953	1278.27	1353.8
318.15 K, x1 = 1	1280.95	1349
328.15 K, x1 = 0.05002	1096.85	1515.2
328.15 K, x1 = 0.09974	1148.65	1470.6
328.15 K, x1 = 0.1499	1179.14	1440.5
328.15 K, x1 = 0.3013	1224.48	1389.8
328.15 K, x1 = 0.3994	1239.35	1372.1
328.15 K, x1 = 0.4973	1249.21	1359.9
328.15 K, x1 = 0.5999	1257.03	1350.1
328.15 K, x1 = 0.6988	1262.64	1343.2
328.15 K, x1 = 0.8953	1270.44	1332.5
328.15 K, x1 = 1	1273.16	1327.8
338.15 K, x1 = 0.05002	1089.38	1502.3
338.15 K, x1 = 0.09974	1140.47	1452.7
338.15 K, x1 = 0.1499	1170.71	1420.3
338.15 K, x1 = 0.3013	1216.08	1368.1
338.15 K, x1 = 0.3994	1231.09	1350.4
338.15 K, x1 = 0.4973	1241.08	1338.3
338.15 K, x1 = 0.5999	1249.02	1328.7
338.15 K, x1 = 0.6988	1254.72	1321.6
338.15 K, x1 = 0.8953	1262.66	1311.2
338.15 K, x1 = 1	1265.44	1307
